ChEMBL document CHEMBL1201862, “PubChem BioAssay data set” (2004)
Calls of active or inactive are those of the source.

How the values were obtained:
[1] = target: T1, Rac GTPase-activating protein 1 (Homo sapiens, UniProt Q9H0H5); experiment: blockers of MgcRacGAP-driven Rac1 GTP hydrolysis – biochemical, ADP Hunter fluorescence, primary and confirmatory, confirmation (AID 624330); type: functional
T1 sequence (Q9H0H5 whole entry): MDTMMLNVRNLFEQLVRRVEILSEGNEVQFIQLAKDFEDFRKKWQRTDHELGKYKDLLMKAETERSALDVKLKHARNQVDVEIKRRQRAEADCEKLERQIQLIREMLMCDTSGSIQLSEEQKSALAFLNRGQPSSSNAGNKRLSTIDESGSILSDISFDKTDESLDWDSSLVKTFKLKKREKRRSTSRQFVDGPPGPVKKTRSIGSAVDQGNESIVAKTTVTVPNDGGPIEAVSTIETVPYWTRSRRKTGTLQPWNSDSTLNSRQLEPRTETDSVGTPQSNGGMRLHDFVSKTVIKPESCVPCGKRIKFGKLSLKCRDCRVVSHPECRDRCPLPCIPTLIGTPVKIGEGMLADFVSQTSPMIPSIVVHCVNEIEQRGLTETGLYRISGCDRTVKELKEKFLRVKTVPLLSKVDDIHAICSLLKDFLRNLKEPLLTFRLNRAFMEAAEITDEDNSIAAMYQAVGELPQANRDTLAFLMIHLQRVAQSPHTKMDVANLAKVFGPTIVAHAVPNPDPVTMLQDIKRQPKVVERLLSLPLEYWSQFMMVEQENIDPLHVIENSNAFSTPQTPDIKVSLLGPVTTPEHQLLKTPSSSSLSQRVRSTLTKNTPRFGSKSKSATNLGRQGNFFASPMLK

[2] = viability loss in HeLa cells – cytotoxicity control for MgcRacGAP inhibitor project, dose response (AID 624300); type: functional
[3] = target: Hepatocyte nuclear factor 4-alpha (Homo sapiens, UniProt P41235); type: functional, cell-based;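 note: biochemical luminescence-based dose-response counterscreen measuring inhibition of HNF4 dimerization, run alongside a screen for blockers of ABHD5–perilipin-5 interaction; split luciferase complementation of HNF4 fusion proteins in cell lysate measuring dimerization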
Sequence of Hepatocyte nuclear factor 4-alpha (P41235 whole entry, the tested form may be a part): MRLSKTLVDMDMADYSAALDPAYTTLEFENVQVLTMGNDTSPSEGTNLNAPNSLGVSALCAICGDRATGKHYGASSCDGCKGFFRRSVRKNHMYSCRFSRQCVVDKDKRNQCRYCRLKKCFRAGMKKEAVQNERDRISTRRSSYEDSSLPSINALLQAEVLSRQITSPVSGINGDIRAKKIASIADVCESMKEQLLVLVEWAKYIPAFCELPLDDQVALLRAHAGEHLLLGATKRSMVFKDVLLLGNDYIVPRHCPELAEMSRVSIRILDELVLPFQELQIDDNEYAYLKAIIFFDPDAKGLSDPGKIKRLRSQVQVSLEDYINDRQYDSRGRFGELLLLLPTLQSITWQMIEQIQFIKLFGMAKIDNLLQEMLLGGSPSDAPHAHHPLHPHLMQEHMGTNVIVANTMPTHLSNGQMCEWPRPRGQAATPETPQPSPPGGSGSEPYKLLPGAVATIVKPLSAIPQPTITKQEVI

[4] = target: T2, Mannose-6-phosphate isomerase (Homo sapiens, UniProt P34949); experiment: MPI inhibition at elevated mannose 6-phosphate – biochemical, fluorescence intensity, high mannose 6-phosphate, primary screen (AID 1220)
T2 sequence (P34949 whole entry): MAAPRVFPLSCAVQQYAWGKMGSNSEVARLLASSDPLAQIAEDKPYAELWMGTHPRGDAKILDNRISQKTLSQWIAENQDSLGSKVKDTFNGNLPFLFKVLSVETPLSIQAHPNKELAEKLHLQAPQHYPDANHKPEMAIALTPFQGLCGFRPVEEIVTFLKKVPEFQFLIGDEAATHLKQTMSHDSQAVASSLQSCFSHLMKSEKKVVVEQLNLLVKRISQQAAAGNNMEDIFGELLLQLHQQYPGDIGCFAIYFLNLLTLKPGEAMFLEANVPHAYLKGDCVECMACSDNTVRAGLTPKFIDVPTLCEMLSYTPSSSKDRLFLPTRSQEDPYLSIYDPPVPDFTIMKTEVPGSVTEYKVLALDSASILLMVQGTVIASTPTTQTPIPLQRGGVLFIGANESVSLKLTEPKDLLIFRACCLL

[5] = target: Glucose-6-phosphate 1-dehydrogenase (Homo sapiens, UniProt P11413); experiment: inhibition of Homo sapiens G6PD, dose series – biochemical, fluorescence, selectivity assay for P. falciparum G6PD inhibitor project, dose response (AID 504792); type: functional
Sequence of Glucose-6-phosphate 1-dehydrogenase (P11413 whole entry): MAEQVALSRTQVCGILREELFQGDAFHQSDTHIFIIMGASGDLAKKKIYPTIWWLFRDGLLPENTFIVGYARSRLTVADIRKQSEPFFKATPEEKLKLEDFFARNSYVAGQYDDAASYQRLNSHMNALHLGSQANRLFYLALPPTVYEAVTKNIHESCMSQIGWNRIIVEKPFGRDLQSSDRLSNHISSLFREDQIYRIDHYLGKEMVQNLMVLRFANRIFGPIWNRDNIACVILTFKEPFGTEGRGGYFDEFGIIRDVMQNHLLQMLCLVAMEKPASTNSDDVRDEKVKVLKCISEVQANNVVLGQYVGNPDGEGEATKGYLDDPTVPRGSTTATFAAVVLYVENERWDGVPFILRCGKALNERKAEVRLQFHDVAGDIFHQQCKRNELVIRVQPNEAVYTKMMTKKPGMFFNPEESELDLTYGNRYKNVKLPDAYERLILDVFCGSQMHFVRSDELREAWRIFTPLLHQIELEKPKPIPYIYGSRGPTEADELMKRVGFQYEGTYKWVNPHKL

Melanocortin receptor 4 = Melanocortin receptor 4 (Homo sapiens, UniProt P32245); type: functional, cell-based;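 note: Cell-based assay with luminescence read-out, confirmatory dose-response testing for agonist activity of biased ligands at MC4R; human U2OS cells with tagged receptor and beta-arrestin; potency of agonists that increase receptor coupling to beta-arrestin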
Sequence of Melanocortin receptor 4 (P32245 whole entry): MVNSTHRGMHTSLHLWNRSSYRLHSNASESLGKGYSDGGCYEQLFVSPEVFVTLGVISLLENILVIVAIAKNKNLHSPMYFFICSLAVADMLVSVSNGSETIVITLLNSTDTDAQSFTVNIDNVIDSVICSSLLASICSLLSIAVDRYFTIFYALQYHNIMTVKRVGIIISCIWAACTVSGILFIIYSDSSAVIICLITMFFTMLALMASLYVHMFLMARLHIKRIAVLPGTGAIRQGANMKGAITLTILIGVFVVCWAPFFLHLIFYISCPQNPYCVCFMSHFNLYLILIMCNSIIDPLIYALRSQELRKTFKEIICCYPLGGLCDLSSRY

[6] = luciferase reporter signal suppression in cells – H4 neuroglioma cells, luminescence, dose response (AID 1990); type: functional, cell-based
[7] = inhibition of ARNT PAS-B/TACC3 complex formation – biochemical, AlphaScreen, cherry-picked samples, confirmation (AID 651703); type: functional, Homo sapiens;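 note: His-tagged ARNT PAS-B domain paired with GST-TACC3 E629A dimer coactivator fragment; potency of inhibitors that break up the complex and lower AlphaScreen signal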
[8] = alpha-synuclein stem-loop luciferase translation blockers – H4 neuroglioma cells, luminescence, confirmation (AID 1988); type: functional, cell-based
[9] = Luminescence Cell-Based Dose Response HTS to Identify Inhibitors of 5'UTR Stem-Loop Driven Prion Protein mRNA Translation in H4 Neuroglioblastoma Cells. [Related pubchem assays: 1827 (Project Summary), 1813 (Primary HTS)]; type: functional
Interleukin-8 [10] = target: T3, Interleukin-8 (Homo sapiens, UniProt P10145); experiment: Dose Response confirmation of uHTS small molecule hits for cystic fibrosis induced NFkb Inhibitors in a TNFa-induced IL8 counterscreen.; type: functional; conditions: read-out: IC50_Mean
T3 sequence (P10145 whole entry): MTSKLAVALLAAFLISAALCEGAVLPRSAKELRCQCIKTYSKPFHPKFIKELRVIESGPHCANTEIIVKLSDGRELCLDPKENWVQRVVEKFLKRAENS

Interleukin-8 [11] = target: T3, Interleukin-8; experiment: Dose Response confirmation of uHTS small molecule hits for cystic fibrosis induced NFkb Inhibitors in a PAF-induced IL8 counterscreen.; type: functional; conditions: read-out: IC50_Mean
HEK293 = experiment: EBV LMP1 TES2 canonical NF-kB signalling blockers – cell-based, HEK293, luciferase, cherry-pick, dose response (AID 588343); type: functional; conditions: Homo sapiens
[12] = target: T4, Probable nicotinate-nucleotide adenylyltransferase (Staphylococcus aureus (strain N315), UniProt P65502); type: functional, Staphylococcus aureus subsp. aureus N315;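 for IC50 Mean: confirmatory dose-response retesting of NadD inhibitor hits first found in an ultra-high-throughput screen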
T4 sequence (P65502 whole entry): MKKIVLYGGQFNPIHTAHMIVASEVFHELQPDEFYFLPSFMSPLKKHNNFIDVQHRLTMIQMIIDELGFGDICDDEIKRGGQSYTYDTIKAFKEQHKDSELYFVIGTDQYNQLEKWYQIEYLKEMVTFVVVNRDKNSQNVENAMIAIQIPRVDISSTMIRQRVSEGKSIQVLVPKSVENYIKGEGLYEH

[13] = target: T5, Low molecular weight phosphotyrosine protein phosphatase (Homo sapiens, UniProt P24666); type: functional; conditions: read-out: IC50_Mean;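 note: Dose-response confirmation assay measuring inhibition of LMPTP enzyme activity by fluorescence intensity read-out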
T5 sequence (P24666 whole entry): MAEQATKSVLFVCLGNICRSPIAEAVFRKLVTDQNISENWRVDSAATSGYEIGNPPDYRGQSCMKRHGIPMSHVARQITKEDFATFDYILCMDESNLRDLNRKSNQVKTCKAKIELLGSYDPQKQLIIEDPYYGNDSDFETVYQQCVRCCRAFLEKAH

[14] = target: T4, Probable nicotinate-nucleotide adenylyltransferase; type: functional, Staphylococcus aureus subsp. aureus N315; conditions: read-out: IC50_Mean
[15] = activation of miR-122 Renilla sensor silencing – cell-based, Huh7 psiCHECK-miR122, Renilla luciferase, cherry-picked, dose response (AID 651956); type: functional;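 note: huh7 hepatoma cells stably carrying a psiCHECK-2 miR-122 sensor plasmid; renilla luciferase signal reporting endogenous miR-122 activity after 48 h compound exposure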
[16] = target: Adenosylmethionine-8-amino-7-oxononanoate aminotransferase (Mycobacterium tuberculosis, UniProt P9WQ81); experiment: Mycobacterium tuberculosis BioA enzyme inhibitor Measured in Biochemical System Using Plate Reader - 2163-02_Inhibitor_Dose_CherryPick_Activity.; type: functional, Mycobacterium tuberculosis UT205
Sequence of Adenosylmethionine-8-amino-7-oxononanoate aminotransferase (P9WQ81 whole entry): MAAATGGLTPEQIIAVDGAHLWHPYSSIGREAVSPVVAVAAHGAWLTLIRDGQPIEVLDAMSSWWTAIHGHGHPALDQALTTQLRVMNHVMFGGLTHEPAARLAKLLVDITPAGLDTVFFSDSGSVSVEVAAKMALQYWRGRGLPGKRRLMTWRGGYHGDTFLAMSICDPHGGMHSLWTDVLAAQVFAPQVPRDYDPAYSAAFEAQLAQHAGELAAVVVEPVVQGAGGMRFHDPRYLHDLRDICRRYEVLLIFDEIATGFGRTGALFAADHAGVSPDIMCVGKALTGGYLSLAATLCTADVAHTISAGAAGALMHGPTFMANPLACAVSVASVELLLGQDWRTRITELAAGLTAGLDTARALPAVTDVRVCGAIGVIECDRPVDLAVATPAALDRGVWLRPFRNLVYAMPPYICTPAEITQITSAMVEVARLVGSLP

[17] = Counterscreen for inhibitors of Trypanosoma brucei methionyl tRNA synthetase (MetRS): Luminescence-based cell-based high throughput dose response assay to identify compounds that are cytotoxic to Jurkat human T lymphocyte cells.; type: functional
[18] = target: T6, Methionyl-tRNA synthetase, putative (Trypanosoma brucei brucei, UniProt Q38C91); type: functional, Trypanosoma brucei brucei strain 927/4 GUTat10.1
T6 sequence (Q38C91 whole entry): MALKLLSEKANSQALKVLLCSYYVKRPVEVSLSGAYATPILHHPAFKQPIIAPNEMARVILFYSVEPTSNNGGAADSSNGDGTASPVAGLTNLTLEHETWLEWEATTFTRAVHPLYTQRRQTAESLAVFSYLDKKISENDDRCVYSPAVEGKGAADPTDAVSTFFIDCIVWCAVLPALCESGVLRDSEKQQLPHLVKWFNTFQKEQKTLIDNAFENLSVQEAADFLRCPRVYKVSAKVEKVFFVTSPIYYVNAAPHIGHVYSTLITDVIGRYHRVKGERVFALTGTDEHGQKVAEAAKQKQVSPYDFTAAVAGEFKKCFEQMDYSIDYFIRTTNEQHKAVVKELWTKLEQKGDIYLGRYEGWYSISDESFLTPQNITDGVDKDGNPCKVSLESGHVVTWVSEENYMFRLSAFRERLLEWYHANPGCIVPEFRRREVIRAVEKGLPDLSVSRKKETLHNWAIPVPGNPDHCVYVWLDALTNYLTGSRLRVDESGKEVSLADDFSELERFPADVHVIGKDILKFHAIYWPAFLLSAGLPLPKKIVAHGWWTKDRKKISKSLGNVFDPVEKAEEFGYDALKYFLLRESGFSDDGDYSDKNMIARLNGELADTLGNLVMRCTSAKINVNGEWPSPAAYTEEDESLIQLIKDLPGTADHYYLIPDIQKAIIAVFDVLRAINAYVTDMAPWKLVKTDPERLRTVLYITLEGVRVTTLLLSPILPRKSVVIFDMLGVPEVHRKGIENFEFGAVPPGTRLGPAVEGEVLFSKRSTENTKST

[19] = target: T6, Methionyl-tRNA synthetase, putative; type: functional, Trypanosoma brucei brucei strain 927/4 GUTat10.1; remark: listed apart in the source
[20] = target: T7, Histone-lysine N-methyltransferase NSD2 (Homo sapiens, UniProt O96028); type: biochemical
T7 sequence (O96028 whole entry): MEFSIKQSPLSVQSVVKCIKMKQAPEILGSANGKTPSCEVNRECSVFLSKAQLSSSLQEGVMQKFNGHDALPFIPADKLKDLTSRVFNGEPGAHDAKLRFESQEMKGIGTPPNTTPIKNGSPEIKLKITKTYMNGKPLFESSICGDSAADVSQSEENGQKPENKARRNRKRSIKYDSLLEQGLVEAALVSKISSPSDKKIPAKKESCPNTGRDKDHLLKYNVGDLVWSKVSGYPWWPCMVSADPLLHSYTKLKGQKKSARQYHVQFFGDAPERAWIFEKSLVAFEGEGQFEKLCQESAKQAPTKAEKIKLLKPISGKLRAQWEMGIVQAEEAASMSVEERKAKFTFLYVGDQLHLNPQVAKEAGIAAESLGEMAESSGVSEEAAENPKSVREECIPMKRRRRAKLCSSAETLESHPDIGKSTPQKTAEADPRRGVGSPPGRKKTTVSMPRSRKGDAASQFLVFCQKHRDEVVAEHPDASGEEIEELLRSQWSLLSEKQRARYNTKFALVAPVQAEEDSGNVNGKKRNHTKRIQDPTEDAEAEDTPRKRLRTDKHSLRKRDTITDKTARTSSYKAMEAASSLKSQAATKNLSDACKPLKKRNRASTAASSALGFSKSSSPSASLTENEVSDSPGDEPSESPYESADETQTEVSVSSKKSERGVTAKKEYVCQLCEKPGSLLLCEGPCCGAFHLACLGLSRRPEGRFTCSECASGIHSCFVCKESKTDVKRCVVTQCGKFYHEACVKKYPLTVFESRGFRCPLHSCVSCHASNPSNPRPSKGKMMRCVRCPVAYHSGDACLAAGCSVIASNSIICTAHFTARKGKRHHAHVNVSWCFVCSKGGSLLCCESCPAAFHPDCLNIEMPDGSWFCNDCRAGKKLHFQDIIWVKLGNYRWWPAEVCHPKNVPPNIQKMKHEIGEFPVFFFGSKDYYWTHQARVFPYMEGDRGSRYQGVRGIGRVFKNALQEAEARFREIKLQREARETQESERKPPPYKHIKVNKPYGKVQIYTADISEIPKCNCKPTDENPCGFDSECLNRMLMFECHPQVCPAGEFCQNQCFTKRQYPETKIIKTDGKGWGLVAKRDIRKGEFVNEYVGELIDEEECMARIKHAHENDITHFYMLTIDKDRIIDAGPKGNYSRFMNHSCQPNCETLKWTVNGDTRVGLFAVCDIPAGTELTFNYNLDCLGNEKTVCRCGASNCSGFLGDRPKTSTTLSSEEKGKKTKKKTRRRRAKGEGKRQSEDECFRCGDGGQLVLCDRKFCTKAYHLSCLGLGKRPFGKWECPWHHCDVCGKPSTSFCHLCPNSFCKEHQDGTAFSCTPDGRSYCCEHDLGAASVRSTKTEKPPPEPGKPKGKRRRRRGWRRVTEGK

[21] = target: Ras and Rab interactor 1/Tyrosine-protein kinase ABL1 (Homo sapiens, UniProt P00519+Q13671); type: functional;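 note: biochemical TR-FRET dose-response test measuring inhibition of binding between Rin1 and Abl proteins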
Sequence of Ras and Rab interactor 1/Tyrosine-protein kinase ABL1 (P00519 whole entry): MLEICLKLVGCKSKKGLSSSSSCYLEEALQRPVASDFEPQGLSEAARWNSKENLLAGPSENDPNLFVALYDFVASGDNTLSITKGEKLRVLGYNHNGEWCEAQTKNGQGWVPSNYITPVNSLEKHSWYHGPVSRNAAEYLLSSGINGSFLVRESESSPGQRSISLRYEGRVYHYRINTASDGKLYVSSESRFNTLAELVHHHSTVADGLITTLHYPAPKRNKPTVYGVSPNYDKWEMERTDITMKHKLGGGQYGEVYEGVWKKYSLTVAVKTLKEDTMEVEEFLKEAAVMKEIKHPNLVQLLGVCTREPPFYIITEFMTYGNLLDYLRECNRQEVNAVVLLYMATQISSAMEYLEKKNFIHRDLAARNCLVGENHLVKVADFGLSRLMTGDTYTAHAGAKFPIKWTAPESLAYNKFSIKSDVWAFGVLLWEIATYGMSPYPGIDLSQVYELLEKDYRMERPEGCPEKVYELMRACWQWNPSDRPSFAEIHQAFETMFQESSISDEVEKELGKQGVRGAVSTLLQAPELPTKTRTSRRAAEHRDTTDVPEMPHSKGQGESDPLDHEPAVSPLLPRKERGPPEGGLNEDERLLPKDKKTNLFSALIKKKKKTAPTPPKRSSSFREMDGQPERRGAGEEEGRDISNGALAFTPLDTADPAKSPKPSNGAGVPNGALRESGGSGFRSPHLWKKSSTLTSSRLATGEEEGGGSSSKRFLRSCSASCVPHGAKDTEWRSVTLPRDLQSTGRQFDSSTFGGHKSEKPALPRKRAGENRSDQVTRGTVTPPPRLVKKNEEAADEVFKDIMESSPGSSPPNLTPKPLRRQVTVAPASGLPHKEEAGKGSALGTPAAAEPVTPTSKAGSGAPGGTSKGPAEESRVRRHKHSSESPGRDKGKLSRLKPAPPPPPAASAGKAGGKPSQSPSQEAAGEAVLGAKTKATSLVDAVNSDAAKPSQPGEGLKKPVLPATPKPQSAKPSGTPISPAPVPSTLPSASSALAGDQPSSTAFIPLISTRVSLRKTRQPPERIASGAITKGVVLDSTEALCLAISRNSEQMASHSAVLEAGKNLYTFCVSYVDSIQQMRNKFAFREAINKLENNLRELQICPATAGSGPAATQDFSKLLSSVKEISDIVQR
Sequence of Ras and Rab interactor 1/Tyrosine-protein kinase ABL1 (Q13671 whole entry): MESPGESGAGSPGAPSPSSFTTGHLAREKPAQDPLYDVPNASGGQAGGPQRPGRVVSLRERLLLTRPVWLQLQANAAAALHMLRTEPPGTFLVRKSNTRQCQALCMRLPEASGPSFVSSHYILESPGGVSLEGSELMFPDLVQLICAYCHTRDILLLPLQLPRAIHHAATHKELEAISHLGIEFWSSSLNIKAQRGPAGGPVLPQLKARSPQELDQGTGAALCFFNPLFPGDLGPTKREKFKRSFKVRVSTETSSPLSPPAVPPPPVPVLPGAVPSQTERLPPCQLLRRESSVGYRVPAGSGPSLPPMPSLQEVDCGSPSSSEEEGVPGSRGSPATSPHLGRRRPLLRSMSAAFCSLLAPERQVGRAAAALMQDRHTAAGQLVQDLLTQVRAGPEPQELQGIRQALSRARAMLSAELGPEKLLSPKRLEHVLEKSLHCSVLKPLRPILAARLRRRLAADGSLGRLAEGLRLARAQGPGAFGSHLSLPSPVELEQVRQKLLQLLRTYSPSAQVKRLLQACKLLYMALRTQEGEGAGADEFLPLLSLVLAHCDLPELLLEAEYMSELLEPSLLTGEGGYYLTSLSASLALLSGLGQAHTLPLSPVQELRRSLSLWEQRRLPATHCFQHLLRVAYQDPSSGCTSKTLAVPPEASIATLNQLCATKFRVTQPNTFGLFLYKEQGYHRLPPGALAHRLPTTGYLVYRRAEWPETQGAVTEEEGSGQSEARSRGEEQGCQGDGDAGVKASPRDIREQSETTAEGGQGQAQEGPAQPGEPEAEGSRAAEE

SMILES: CCC(CC)NCc1ccc2c(c1)c1ccccc1n2CC
- IC50 [1]: 133 µM (active)
- CC50 [2]: 100 µM (active)

SMILES: CC1=CC(C)(C)Nc2ccc(OC(=O)CN3C(=O)c4cccc5cccc(c45)C3=O)cc21
- IC50 [3]: 6.95 µM (active)
- IC50 [4]: 33 µM (active)
- IC50 [5]: 64.2 µM (inactive)

SMILES: Cc1ccccc1-c1nc(-c2ccc(NC(=O)c3ccc4c(c3)OCO4)cc2)no1
- EC50 (Melanocortin receptor 4): > 89.1 µM (inactive)

SMILES: O=C(NCCCn1ccnc1)C(=O)NCC1OCCCN1S(=O)(=O)c1ccccc1 (stereo not drawn)
- EC50 [6]: > 120 µM (not active)
- AC50 [7]: 80 µM (active)
- EC50 [8]: > 120 µM (not active)
- EC50 [9]: 17.5 µM (active)

SMILES: CCn1c(=O)c2c(cnn2C)c2ccccc21
- IC50 (Interleukin-8 [10]): > 79 µM (inactive)
- IC50 (Interleukin-8 [11]): 46.2 µM (inactive)
- AC50 (HEK293): 35.3 µM (active)

SMILES: N#CC(C#N)c1ccnc2ccccc12
- IC50 (Interleukin-8 [10]): 40.4 µM (inactive)
- IC50 (Interleukin-8 [11]): > 79 µM (inactive)
- AC50 (HEK293): 11.5 µM (active)

SMILES: COc1ccccc1/C=C/C=N/NC(=O)c1cc(-c2ccco2)[nH]n1
- IC50 [12]: 19.5 µM (active)
- IC50 [13]: 80 µM (inactive)
- IC50 [14]: 41.2 µM (active)

SMILES: CCOc1ccc(NC(=S)N(CCCN2CCCC2)Cc2cccn2Cc2ccc(Cl)cc2)cc1
- AC50 [15]: 46.1 µM (active)

SMILES: O=C(c1ccc(Br)s1)N1CCN(Cc2ccc3c(c2)OCO3)CC1
- AC50 [16]: 1.64 µM (active)

SMILES: CCC[C@H]1CN(Cc2cccnc2)C(=O)[C@@H]1CC(=O)Nc1ccc(Br)cc1
- IC50 [17]: 83.3 µM (inactive)
- IC50 [18]: 8.41 µM (active)
- IC50 [19]: 3.49 µM (active)

SMILES: COc1cc(OC)c(C(=O)Nc2cccnc2)cc1OC
- AC50 [16]: 1.81 µM (active)

SMILES: CCOC(=O)CCCCC(=O)c1[nH]c(O)nc1CSc1nc(C)cc(O)n1
- AC50 [20]: 8.18 µM (active)
- IC50 [21]: 0.192 µM (active)

SMILES: O=C(NC1CCCCC1)C(c1ccnc2ccccc12)n1c(=O)c(-c2ccco2)nc2ccccc21 (stereo not drawn)
- IC50 [3]: 2.23 µM (active)
